Reference: PubChem BioAssay (NCI)
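These data come from cells grown in 96-well plates and exposed to compound for 48 hours at five concentrations. The concentration for 50% growth inhibition is given as GI50. TGI denotes the concentration required for complete inhibition of growth.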

How the values were obtained:
Assay in all cases: NCI tumour cell line growth inhibition, 48 h
[1] = test system: 786-0 renal
[2] = test system: OVCAR-4 ovarian
[3] = test system: SK-MEL-2 melanoma
[4] = test system: NCI-H23 lung
[5] = test system: IGROV1 ovarian
[6] = test system: A498 renal
[7] = test system: SF-295 CNS
[8] = test system: NCI-H522 lung
[9] = test system: UACC-257 melanoma
[10] = test system: NCI-H226 lung

Row | SMILES | TGI [1] [µM] | TGI [2] [µM] | TGI [3] [µM] | TGI [4] [µM] | TGI [5] [µM] | TGI [6] [µM] | TGI [7] [µM] | TGI [8] [µM] | TGI [9] [µM] | TGI [10] [µM] | GI50 [1] [µM] | GI50 [2] [µM] | GI50 [3] [µM] | GI50 [4] [µM] | GI50 [5] [µM] | GI50 [8] [µM] | GI50 [6] [µM] | GI50 [9] [µM] | GI50 [7] [µM] | GI50 [10] [µM]
1 | COC(=O)Nc1nc2ccc(C(=O)c3ccc[nH]3)cc2[nH]1 | > 100 | > 100 | > 100 | > 100 | > 100 | > 100 | > 100 |  |  |  |  |  |  |  |  |  |  |  |  | 
2 | O/N=C1/C(=C/c2ccc(F)cc2)CCCC1C(NO)c1ccc(F)cc1 (stereo unspecified) | > 100 | > 100 | > 100 | 51.7 | > 100 | > 100 | > 100 | 42.5 | 64.5 |  |  |  |  |  |  |  |  |  |  | 
3 | CC(C)=CC(=O)CC(=O)C(=O)Nc1ccc(C)c(C)c1 | > 100 |  | > 100 | > 100 | > 100 |  | > 100 | > 100 | > 100 | > 100 |  |  |  |  |  |  |  |  |  | 
4 | COc1cc2c3c(n(C)c(=O)c2cc1OC)-c1cc2c(cc1/C3=C\CCCCN)OCO2 | 19.6 | 57.3 | 24.1 | 15.3 | 8.53 | 22.6 | 15.2 | 9.24 | 35.7 |  | 5.23 | 17.2 | 5.71 | 3.84 | 3.12 | 2.02 | 9.53 | 12.5 | 3.56 | 
5 | CC(=O)[CH-]C(=O)c1ccccc1.CC(=O)[CH-]C(=O)c1ccccc1.CCN(CC)CC[O-].CCN(CC)CC[O-].Cl.[Ti+4] | > 100 | > 100 | 93.9 |  | > 100 | 72.5 | 86.7 | 43 | 96.1 | 62.4 | 45.5 | 56.5 | 26.9 |  | 45.8 | 17.1 | 26.2 | 24.3 | 37.9 | 23
6 | COc1ccc(N(C)c2nc(C)nc3ccccc23)cc1 | 55.7 | > 100 |  | 20.8 | > 100 | < 0.01 |  | < 0.01 | 27 | 0.534 | < 0.01 | < 0.01 |  | < 0.01 | < 0.01 | < 0.01 | < 0.01 | 11.3 | < 0.01 | < 0.01
7 | CC(=O)O[C@H]1C(=O)[C@@]2(C)C([C@H](OC(=O)c3ccccc3)[C@]3(O)C[C@H](OC(=O)[C@H](O)[C@H](NC(=O)c4ccccc4)c4ccc(Cl)cc4)C(C)=C1C3(C)C)C1(OC(C)=O)CO[C@@H]1C[C@@H]2O (stereo partly specified) | 28.1 | 22.1 | 0.0635 |  |  | 30.4 |  | 0.00369 |  | 0.0497 |  |  |  |  |  |  | 0.2 |  | 0.0167 | 
8 | Cc1ccc(-c2c(C#N)c(N)nc(N3CCOCC3)c2C#N)o1 | 57.9 | > 100 | > 100 |  | 59.6 | 54.4 |  | > 100 | > 100 | > 100 | 19.1 | 55.5 | 78.8 |  | 21.6 | 36.4 | 15.5 | 99.8 |  | 46.8
